Source: patent US20060177530A1, “Method of treating diabetes type II” (priority 2003, published 2006)

System: mice
Test: Safety and toxicity studies in mice
Assay type: in vivo
Settings: 0.5, 1 and 2 g/kg
Protocol: The clinical dose of HT is in the range of 1-2000 mg/day, more preferably in the range of 5-500 mg/day and most preferably 10-100 mg/day.

For OCCc1ccc(O)c(O)c1 [HT, hydroxytyrosol], which “clinical or pathological toxicity” value is on record?
Its value is “no clinical or pathological toxicity”.
